Columns and labels:
Type in all cases: cell-based
[1] = tested on: NIH3T3 cells expressing dTAG-KRASG12V; assay: Propidium iodide cell cycle analysis of NIH3T3 cells expressing dTAG-KRASG12V; settings: 48 hours
Experimental: FIG. 20 is a bar graph illustrating NIH3T3 cells expressing dTAG-KRASG12V treated with dFKBP7 and dFKBP13 for 48 hours to induce targeted dTAG-KRASG12V degradation. Fixed cells were stained with propidium iodide and cell cycle analysis was performed.
NIH3T3 cells were engineered to express dTAG-KRASG12V. NIH3T3 cells expressing dTAG-KRASG12V were treated with dFKBP7 and dFKBP13 for 48 hours to induce targeted dTAG-KRASG12V degradation. Fixed cells were stained with propidium iodide and cell cycle analysis was performed.

[2] = tested on: indicated proteins fused to mutant FKBP* with an HA tag; assay: Immunoblot of proteins fused to FKBP* in MV4;11 leukemia cells; settings: MV4;11 cells, 16 hours, indicated concentrations
Source text: Immunoblots of MV4;11 leukemia cells expressing indicated proteins fused to mutant FKBP* with an HA tag.
To test the general utility of the dTAG technology across several protein types, the indicated proteins fused to the dTAG in MV4;11 leukemia cells were expressed.

[3] = tested on: KRAS signaling (pMEK and pAKT); assay: Immunoblot of downstream surrogates of KRAS signaling in NIH3T3 cells expressing dTAG-KRAS
Experimental: FIG. 11 is an immunoblot of NIH3T3 cells expressing KRASG12V allele fused to FKBP* in the N-terminus or C-terminus. Cells were treated with 500 nM dFKBP7 for the indicated time. Cells were harvested and immunoblotted to measure degradation of FKBP*-KRASG12V and downstream surrogates of KRAS signaling (e.g. pMEK and pAKT).
(§1) FIG. 12 is an immunoblot of NIH3T3 cells expressing FKBP* fused to the N-terminus of KRASG12V treated with 1 uM of the indicated dFKBP heterobifunctional compounds for 24 hours. Cells were harvested and immunoblotted to measure degradation of FKBP*-KRASG12V and downstream surrogates of KRAS signaling (e.g. pMEK and pAKT).
as §1, with “FIG. 13” for “FIG. 12”, “with” for “with 1 uM of”, “indicated concentrations of dFKBP13” for “indicated dFKBP heterobifunctional compounds”
FIG. 14 is an immunoblot of NIH3T3 cells expressing FKBP* fused to the N-terminus of KRASG12V treated with 1 uM dFKBP13 for the indicated time. Cells were harvested and immunoblotted to measure degradation of FKBP*-KRASG12V and downstream surrogates of KRAS signaling (e.g. pMEK and pAKT).
Cells were treated with 500 nM dFKBP7 for the indicated time. Cells were harvested and immunoblotted to measure degradation of FKBP*-KRAS and downstream surrogates of KRAS signaling (e.g. pMEK and pAKT).
In an effort to identify the best performing dFKBP molecule, dTAG-KRAS degradation was profiled across a series of dFKBP molecules. Western blotting of NIH3T3 cells expressing dTAG-KRASG12V were treated with 1 μM of the indicated dFKBP heterobifunctional compounds for 24 hours. Cells were harvested and immunoblotted to measure degradation of FKBP*-KRAS and downstream surrogates of KRAS signaling (e.g. pMEK and pAKT).
Western blotting of NIH3T3 cells expressing FKBP* fused to the N-terminus of KRAS treated with the indicated concentrations of dFKBP13 for 24 hours. Cells were harvested and immunoblotted to measure degradation of FKBP*-KRAS and downstream surrogates of KRAS signaling (e.g. pMEK and pAKT).
To evaluate the kinetic control of targeted degradation of dTAG-KRAS, dFKBP13 was administered by increased duration. Western blotting of NIH3T3 cells expressing FKBP* fused to the N-terminus of KRAS treated with 1 μM dFKBP13 for the indicated time. Cells were harvested and immunoblotted to measure degradation of FKBP*-KRAS and downstream surrogates of KRAS signaling (e.g. pMEK and pAKT).
(§2) The dFKBP13 heterobifunctional compound potently degrades dTAG-KRAS mutant alleles. NIH3T3 cells were engineered to express KRAS alleles either WT or mutant forms of amino acid glycine 12 (G12C, G12D, and G12V). Western blotting of NIH3T3 cells expressing dTAG fused to the N-terminus of KRAS alleles were treated with 1 uM of dFKBP13 for 24 hours. Cells were harvested and immunoblotted to measure degradation of dTAG-KRAS and downstream surrogates of KRAS signaling (e.g. pMEK and pAKT).
as §2, with “express” for “express KRAS alleles”, “KRAS alleles (G13D, Q61L,” for “forms of amino acid glycine 12 (G12C, G12D,”, “Q61R).” for “G12V).”

## CC[C@H](C(=O)N1CCCC[C@H]1C(=O)O[C@H](CCc1ccc(OC)c(OC)c1)c1cccc(OCC(=O)NCCCOCCOCCOCCCNC(=O)COc2cccc3c2C(=O)N(C2CCC(=O)NC2=O)C3=O)c1)c1cc(OC)c(OC)c(OC)c1 (stereo partly shown) [dFKBP7]
[1]
  cell cycle profile (S-phase entry): diminished S-phase entry
[2]
  degradation of proteins fused to dTAG: degradation was observed with nanomolar concentrations
[3]; NIH3T3 N-terminal dTAG-KRAS, 500 nM, indicated time
  p-AKT signal: downstream decrease in p-AKT signal

## CC[C@H](C(=O)N1CCCC[C@H]1C(=O)O[C@H](CCc1ccc(OC)c(OC)c1)c1cccc(OCC(=O)NCCCCCCOc2cccc3c2C(=O)N(C2CCC(=O)NC2=O)C3=O)c1)c1cc(OC)c(OC)c(OC)c1 (stereo partly shown) [dFKBP13]
[1]
  cell cycle profile (S-phase entry): diminished S-phase entry
[2]
  degradation of proteins fused to dTAG: degradation was observed with nanomolar concentrations
[3]; NIH3T3 FKBP*-KRASG12V, 1 uM, 24 hours
  downstream signaling (pMEK and pAKT): inhibition of downstream signaling
[3]; NIH3T3 FKBP*-KRASG12V, 1 uM, post treatment
  time to inhibition of downstream signaling: ≤ 1 h
[3]; NIH3T3 dTAG-KRAS WT, G12C, G12D, G12V, 1 uM, 24 hours
  downstream signaling (pMEK and pAKT): potently inhibits downstream signaling
[3]; NIH3T3 dTAG-KRAS WT, G13D, Q61L, Q61R, 1 uM, 24 hours
  downstream signaling (pMEK and pAKT): potently inhibits downstream signaling
[3]; read-out: IC50 of inhibition of downstream signaling, NIH3T3 FKBP*-KRASG12V, 24 hours
  IC50: > 100 nM

Source: US11293023B2, “Tunable endogenous protein degradation” (Dana-Farber Cancer Institute, Inc., priority 2015, dated 2022)
